{"source": "paper PMC5349447", "about": "“Applying a high-throughput fluorescence polarization assay for the discovery of chemical probes blocking La:RNA interactions in vitro and in cells” (PLoS ONE, 2017)", "key": {"HEK293 cells": {"tested_on": "HEK293 cells", "assay": "HEK293 cell proliferation and viability", "assay_type": "cell-based, human", "conditions": "data not shown"}, "SCC 22B cells": {"tested_on": "SCC 22B cells", "assay": "Cisplatin sensitization, CyQUANT, SCC 22B", "assay_type": "cell-based, human", "conditions": "50 μM C2.01 pretreatment", "method": "To test whether compound C2.01 sensitizes cells for cisplatin, cells were treated with 0.2% DMSO alone, cisplatin at 4, 8, 16, 32 or 64 μM concentration alone or in combination with 50 μM compound C2.01. The half maximal inhibitory concentration (IC50) of cisplatin was determined by treating SCC 22B cells with increasing cisplatin (Selleckchem) concentrations or vehicle (DMSO) for 48 h (96-well format) as described recently. For this experiments 1x10^4 SCC 22B cells were plated the day before the experiment. DMSO or C2.01 was added to a final concentration of DMSO (0.05%) and C2.01 (50 μM). Six hours later the different cisplatin concentrations were added. The highest DMSO concentration of 0.25% was used in the control for cisplatin and C2.01 double treatment. Subsequently, cells were washed twice with 1x PBS and quantified after staining with fluorescence dye (CyQUANT®, Life Technologies) 48 after the initial C2.01 treatment."}, "[1]": {"tested_on": "Bcl2 protein level in SCC 22A cells", "assay": "Immunoblot for Bcl2, SCC 22A", "assay_type": "cell-based, human", "conditions": "cisplatin and C2.01 (50 μM) versus vehicle"}, "SCC 22A cells": {"tested_on": "SCC 22A cells", "assay": "Phase contrast microscopy and cisplatin IC50, SCC 22A", "assay_type": "cell-based, human", "conditions": "C2.01 (50 μM) combined with cisplatin 12 μM"}, "La:fPolyU complex": {"tested_on": "T1, La:fPolyU complex", "T1 construct": "His; made in house; host or cells: E. coli BL21", "assay": "EMSA, compound competition, La-WT:fPolyU", "assay_type": "binding, human", "method": "12% native TBE polyacrylamide gels were prepared in a Mini-PROTEAN Tetra Handcast System (BioRad). The gel was pre-run for 30 min at 140 V in 1x TBE buffer (45 mM Tris/HCl pH 8.5, 45 mM boric acid, 1 mM EDTA). To prepare the RNA-mix, fluorescence labeled RNA oligoribonucleotides (oligos) were diluted in fluorescence polarization buffer (20 mM Tris/HCl (pH 7.4), 150 mM NaCl, 3.0 mM MgCl2, 0.5 mM EDTA, 0.05% (v/v) IGEPAL), mixed for 10 min at 80°C, and then immediately placed on ice for at least 5 min. All RNA oligos were used at a final concentration of 50 nM. Recombinant La protein was diluted in D-buffer (20 mM Tris/ HCl (pH 7.4), 150mM NaCl, 3mM MgCl2, 0.5mM EDTA, 5% glycerol) and placed on ice until use.\nLa titration was performed at final concentrations of 20, 40, 60, 100, 200, 300, 400, 500, 600 nM La. Three different La concentrations were used for compound studies: 60 nM for fD1 RNA, 200 nM for fPolyU RNA, and 150 nM for TOPf RNA studies. Two μl of diluted compound (diluted in 100% DMSO) or 2 μl 100% DMSO (control reaction) was combined with 8 μl La-mix in a 96-well plate. 10 μl RNA-mix was added, mixed for 2 min, and incubated for 10 min at RT in the dark. […] The La-RNA complex (La-RNP) formation was quantified using the ImageQuant TL software. […]"}}}
{"smiles": "Cc1ccc(C(=O)c2ccccc2C(=O)O)c(O)c1", "note": "[C2.01, 2-(2-hydroxy-4-methylbenzoyl)benzoic acid]", "values": [{"measurement": "cell proliferation and viability of HEK293 cells", "setting": "HEK293 cells; 150 μM or below", "value": "not"}, {"measurement": "cell proliferation and viability of HEK293 cells", "setting": "HEK293 cells; 300 or 450 μM", "value": "impaired"}, {"measurement": "sensitization of SCC 22B cells for cisplatin treatment", "setting": "SCC 22B cells", "value": "sensitizes"}, {"measurement": "Bcl2 protein levels (immunoblot)", "setting": "[1]", "value": "reduced"}, {"measurement": "cell number by phase contrast images", "setting": "SCC 22A cells", "value": "dramatically reduced cell number"}]}
{"smiles": "CCOC(=O)c1ccc2c(c1)C1C=CCC1C(C(=O)O)N2", "note": "(stereo not shown) [C6, 8-(ethoxycarbonyl)-3a,4,5,9b-tetrahydro-3Hcyclopenta[c]quinoline-4-carboxylic acid]", "values": [{"measurement": "competition for La:fPolyU complex formation (EMSA), in words", "setting": "La:fPolyU complex; compared with La:fD1 and La:TOPf", "value": "weaker competitor"}]}
{"smiles": "O=C(O)c1ccccc1C(=O)c1ccc(O)cc1O", "note": "[C2, 2-(2,4-dihydroxybenzoyl)benzoic acid]", "values": [{"measurement": "concentration impairing La:PolyU complex formation (EMSA)", "setting": "La:fPolyU complex; La-WT 200 nM, fPolyU 50 nM, highest concentration tested", "value": 10, "unit": "mM"}]}
